The text below walks through data of patent publication US8962641B2, “Pyrimidine-substituted pyrrolidine derivatives, pharmaceutical compositions and uses thereof” (Boehringer Ingelheim International GmbH, priority 2013, dated 2015).

Molecules are shown by their SMILES.

The target of this assay is human ACC2 (Homo sapiens (Human), UniProt O00763). Kind of assay: ACC2 assay (spectrophotometric 384 well assay, NADH-linked kinetic method). Format: biochemical. The following applies: hACC2 construct lacking 128 N-terminal amino acids; coupled lactate dehydrogenase/pyruvate kinase reaction, 340 nm, 25° C. As for the experimental part:
Spectrophotometric 384 Well Assay
Malonyl CoA formation by acetyl CoA carboxylases is stoichometrically linked to the consumption of ATP. ACC2 activity is measured in a NADH-linked kinetic method measuring ADP generated during the ACC reaction using a coupled lactate dehydrogenase/pyruvate kinase reaction.
The protein is then expressed in insect cells using a baculoviral expression system. Protein purification is performed by anion exchange.
All compounds are dissolved in dimethyl sulfoxide (DMSO) to a concentration of 10 mM.
The enzymatic reaction is then started by addition of a mixture of NADH, acetyl Coenzyme A (both 200 μM f.c.) and ATP (500 uM f.c.). The decrease of the optical density (slope S) is then determined at 25° C. at a wavelength of 340 nm over 15 minutes in a spectrophotometric reader.
Each assay microtiter plate contains wells with vehicle instead of compound as controls for the non-inhibited enzyme (100% CTL; ‘HIGH’) and wells without acetyl-CoA as controls for non-specific NADH degradation (0% CTL; ‘LOW’).

human ACC2, sequence (O00763 129-2458): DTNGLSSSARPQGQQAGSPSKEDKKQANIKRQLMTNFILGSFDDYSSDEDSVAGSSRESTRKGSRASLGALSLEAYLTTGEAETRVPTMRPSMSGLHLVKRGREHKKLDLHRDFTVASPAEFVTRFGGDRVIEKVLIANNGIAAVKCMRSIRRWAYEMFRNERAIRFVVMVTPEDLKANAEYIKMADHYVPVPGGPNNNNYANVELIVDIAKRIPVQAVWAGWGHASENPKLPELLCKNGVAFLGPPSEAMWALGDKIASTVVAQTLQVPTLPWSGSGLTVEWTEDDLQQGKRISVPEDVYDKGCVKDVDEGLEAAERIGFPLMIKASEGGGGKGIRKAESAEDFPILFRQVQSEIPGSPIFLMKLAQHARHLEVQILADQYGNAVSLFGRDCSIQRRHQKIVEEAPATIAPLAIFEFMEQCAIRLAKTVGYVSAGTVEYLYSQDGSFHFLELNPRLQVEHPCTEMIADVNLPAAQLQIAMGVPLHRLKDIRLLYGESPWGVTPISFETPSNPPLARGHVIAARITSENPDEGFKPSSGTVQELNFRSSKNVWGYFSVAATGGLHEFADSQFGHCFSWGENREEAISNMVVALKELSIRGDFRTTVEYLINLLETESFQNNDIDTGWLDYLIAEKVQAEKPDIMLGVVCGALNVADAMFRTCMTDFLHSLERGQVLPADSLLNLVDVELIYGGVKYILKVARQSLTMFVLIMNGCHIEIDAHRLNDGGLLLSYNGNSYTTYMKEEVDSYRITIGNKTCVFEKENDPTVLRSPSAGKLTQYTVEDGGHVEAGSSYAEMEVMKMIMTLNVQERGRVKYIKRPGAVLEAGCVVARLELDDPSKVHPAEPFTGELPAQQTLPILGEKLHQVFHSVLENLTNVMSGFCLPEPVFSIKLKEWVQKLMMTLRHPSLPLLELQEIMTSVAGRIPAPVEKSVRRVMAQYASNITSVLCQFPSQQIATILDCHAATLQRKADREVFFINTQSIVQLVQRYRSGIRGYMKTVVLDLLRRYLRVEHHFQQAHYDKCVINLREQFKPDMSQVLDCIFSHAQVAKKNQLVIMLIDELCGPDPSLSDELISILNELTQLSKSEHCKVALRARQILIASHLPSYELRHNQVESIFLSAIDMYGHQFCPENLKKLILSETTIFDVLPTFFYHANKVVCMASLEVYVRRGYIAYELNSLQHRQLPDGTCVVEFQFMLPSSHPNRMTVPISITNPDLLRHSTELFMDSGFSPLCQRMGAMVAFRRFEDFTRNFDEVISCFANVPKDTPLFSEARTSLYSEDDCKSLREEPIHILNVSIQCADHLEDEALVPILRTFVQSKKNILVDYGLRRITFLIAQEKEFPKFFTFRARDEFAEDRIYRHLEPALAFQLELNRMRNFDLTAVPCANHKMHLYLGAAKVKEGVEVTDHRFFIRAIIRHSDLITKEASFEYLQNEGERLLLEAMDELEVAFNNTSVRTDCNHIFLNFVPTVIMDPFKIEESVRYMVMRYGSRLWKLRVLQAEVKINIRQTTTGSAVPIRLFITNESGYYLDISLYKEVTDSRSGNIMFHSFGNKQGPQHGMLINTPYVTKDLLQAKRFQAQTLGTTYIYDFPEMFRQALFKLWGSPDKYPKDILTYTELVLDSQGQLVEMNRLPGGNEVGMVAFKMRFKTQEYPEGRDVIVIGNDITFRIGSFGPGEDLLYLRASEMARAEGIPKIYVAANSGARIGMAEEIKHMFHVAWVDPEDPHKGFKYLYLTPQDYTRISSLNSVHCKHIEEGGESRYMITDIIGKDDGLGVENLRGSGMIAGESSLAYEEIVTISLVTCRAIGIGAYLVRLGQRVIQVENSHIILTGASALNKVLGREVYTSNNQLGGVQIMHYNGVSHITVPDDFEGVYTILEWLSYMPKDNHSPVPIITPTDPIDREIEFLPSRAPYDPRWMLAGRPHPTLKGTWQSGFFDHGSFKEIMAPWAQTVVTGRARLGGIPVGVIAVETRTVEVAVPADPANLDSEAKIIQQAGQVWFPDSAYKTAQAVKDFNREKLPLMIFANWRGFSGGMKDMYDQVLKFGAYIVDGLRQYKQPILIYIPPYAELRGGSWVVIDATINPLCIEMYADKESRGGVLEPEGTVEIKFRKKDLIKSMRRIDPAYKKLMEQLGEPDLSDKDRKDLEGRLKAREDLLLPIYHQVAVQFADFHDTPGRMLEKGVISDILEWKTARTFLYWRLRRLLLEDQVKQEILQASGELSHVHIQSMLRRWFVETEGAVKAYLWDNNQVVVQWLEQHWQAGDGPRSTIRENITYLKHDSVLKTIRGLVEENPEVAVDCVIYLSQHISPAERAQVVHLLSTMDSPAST

Take `CC(=O)N[C@@H](C)c1ccc(O[C@@H]2CCN(c3nc(N(C)CC4CCOC4)ncc3F)C2)cc1` (some centres unmarked) [Example 8.29]: the IC50 worked out at 150 nM.

With `C[C@H](NC(=O)c1cncs1)c1ccc(O[C@@H]2CCN(c3ncc(OCC4CC4(F)F)cn3)C2)cc1` (some centres unmarked) [Example 6.15], half-maximal inhibition (IC50) required 220 nM.

`CC(=O)N[C@@H](C)c1ccc(O[C@@H]2CCN(c3ccnc(NC4CCCC4)n3)C2)cc1` [Example 8.4] returned an IC50 of 1030 nM.

Compound `CC(=O)N[C@@H](C)c1ccc(O[C@@H]2CCN(c3ncnc(N4CC(C)C4)c3F)C2)cc1` [Example 8.200] registered an IC50 of 354 nM.

In the case of `CC(=O)N[C@@H](C)c1ccc(O[C@@H]2CCN(c3nc(N(C)C4CCOCC4)ncc3Cl)C2)cc1` [Example 8.221], the midpoint of inhibition, the IC50, lay at 269 nM.

With `CCN(C)c1nccc(N2CCC(Oc3ccc([C@H](C)NC(=O)c4cn[nH]c4)cc3)C2)n1` (some centres unmarked) [Example 2.17], it took 118 nM to reach half-maximal inhibition (IC50).

Regarding `CC(=O)N[C@@H](C)c1ccc(O[C@@H]2CCN(c3ncnc(N4CCOC(C)C4)c3F)C2)cc1` (some centres unmarked) [Example 8.179], the midpoint of inhibition, the IC50, lay at 358 nM.

As to `CC(=O)N[C@@H](C)c1ccc(OC2CCN(c3cnc(OC4CCC4)nc3)C2)cc1` (some centres unmarked) [Example 1.2], the IC50 is 565 nM.

`CCC(=O)Nc1nc(C)c(C(=O)N[C@@H](C)c2ccc(O[C@@H]3CCN(c4ncnc(OCC(C)(C)O)c4Cl)C3)cc2)s1` [Example 7.66] came in with an IC50 of 723 nM. This IC50 and that of the compound before are within 1.5-fold of each other.

In turn, `CC(=O)N[C@@H](C)c1ccc(O[C@@H]2CCN(c3nc(N4CCC5(CC5)C4)ncc3F)C2)cc1` [Example 8.226] gave an IC50 of 52 nM.

Compound `CCCN(C)c1ncc(C#N)c(N2CC[C@@H](Oc3ccc([C@H](C)NC(C)=O)cc3)C2)n1` [Example 8.34] displayed an IC50 of 1080 nM.

Compound `C[C@H](NC(=O)c1cncs1)c1ccc(O[C@@H]2CCN(c3ccnc(N(C)CCC#N)n3)C2)cc1` [Example 8.98] displayed an IC50 of 212 nM. This IC50 lies about 5.1-fold lower than the previous one.

Consider `COC1CCN(c2nccc(N3CC[C@@H](Oc4ccc([C@H](C)NC(C)=O)cc4)C3)n2)CC1` [Example 8.229], for which the IC50 came out at 641 nM.

With `CC(=O)N[C@@H](C)c1ccc(O[C@@H]2CCN(c3ncnc(N4CC[C@](C)(O)C4)c3F)C2)cc1` [Example 8.291], the half-maximal inhibitory concentration (IC50) was 111 nM.

Take `CC(=O)N[C@@H](C)c1ccc(O[C@@H]2CCN(c3nc(N4CCC(F)(F)C4)ncc3Cl)C2)cc1` [Example 8.128]: the IC50 came to 278 nM.

Compound `CC(=O)N[C@@H](C)c1ccc(O[C@@H]2CCN(c3cc(OCC4CC4(F)F)ncn3)C2)cc1` (some centres unmarked) [Example 7.5] had an IC50 of 842 nM.

As for `CCN(CCC#N)c1ncc(Cl)c(N2CC[C@@H](Oc3ccc([C@H](C)NC(C)=O)cc3)C2)n1` [Example 8.149], the concentration for half-maximal inhibition (IC50) worked out at 387 nM. This IC50 is about 2.2-fold lower than that of the compound before.

`CNC(=O)N[C@@H](C)c1ccc(OC2CCN(c3ccnc(N4CCOCC4)n3)C2)cc1` (some centres unmarked) [Example 3.8] returned an IC50 of 260 nM. The IC50 values of the last two compounds are within 1.5-fold of each other.

In turn, `CC(=O)N[C@@H](C)c1ccc(O[C@@H]2CCN(c3nc(N(C)C4CCOCC4)ncc3F)C2)cc1` [Example 8.157] yielded an IC50 of 105 nM.

Turning to `CC(=O)N[C@@H](C)c1ccc(O[C@@H]2CCN(c3ccnc(N(C)C)n3)C2)cc1` [Example 8.14], the IC50 was 710 nM.

The compound `CCC(=O)Nc1nc(C)c(C(=O)N[C@@H](C)c2ccc(O[C@@H]3CCN(c4ncnc(NCC(F)F)c4OC)C3)cc2)s1` [Example 8.321] registered an IC50 of 830 nM. This IC50 and that of the compound before are within 1.5-fold of each other.

For the compound `CCCOc1ncnc(N2CC[C@@H](Oc3ccc([C@H](C)NC(C)=O)cc3)C2)c1OC` [Example 7.51], half-maximal inhibition (IC50) was put at 392 nM.

With `COCCN(C)c1ncc(F)c(N2CC[C@@H](Oc3ccc([C@H](C)NC(C)=O)cc3)C2)n1` [Example 8.66], the IC50 is 65 nM. This IC50 is about 6-fold lower than that of the compound before.

Compound `CCCN(C)c1ncc(Cl)c(N2CC[C@@H](Oc3ccc([C@H](C)NC(C)=O)cc3)C2)n1` [Example 8.47] showed an IC50 of 65 nM.

`CC(=O)N[C@@H](C)c1ccc(O[C@@H]2CCN(c3ncc(OC(C)C)cn3)C2)cc1` [Example 6.6] displayed an IC50 of 830 nM.

`CC(=O)N[C@@H](C)c1ccc(O[C@@H]2CCN(c3ncnc(N4CCC(C)(O)C4)c3Cl)C2)cc1` (some centres unmarked) [Example 8.297] gave an IC50 of 224 nM.

What is called IC50 is the concentration that gives 50% inhibition. High values mean weaker potency in that assay, low ones greater potency in that assay.
